From patent US7842695B2, “Substituted pyrazole compounds” (Merck Patent GmbH, priority 2003, dated 2010)

What was measured:
5-HT2A receptors = 5-HT2A receptors (UniProt P14842); test: in-vitro affinity to 5-HT2A receptors, [3H]ketanserine displacement (Example A1); format: binding
Source text: The 5-HT2A receptors are exposed both to [^3H]ketanserine (a substance known for its affinity to the receptor) and also to the test compound. The decrease in the affinity of [^3H]ketanserine to the receptor is an indication of the affinity of the test substance to the 5-HT2A receptor.

5 HT2C receptor = target: T1, 5 HT2C receptor (Homo sapiens, UniProt P28335); test: affinity to the 5 HT2C receptor; format: binding
T1 sequence (P28335 33-458): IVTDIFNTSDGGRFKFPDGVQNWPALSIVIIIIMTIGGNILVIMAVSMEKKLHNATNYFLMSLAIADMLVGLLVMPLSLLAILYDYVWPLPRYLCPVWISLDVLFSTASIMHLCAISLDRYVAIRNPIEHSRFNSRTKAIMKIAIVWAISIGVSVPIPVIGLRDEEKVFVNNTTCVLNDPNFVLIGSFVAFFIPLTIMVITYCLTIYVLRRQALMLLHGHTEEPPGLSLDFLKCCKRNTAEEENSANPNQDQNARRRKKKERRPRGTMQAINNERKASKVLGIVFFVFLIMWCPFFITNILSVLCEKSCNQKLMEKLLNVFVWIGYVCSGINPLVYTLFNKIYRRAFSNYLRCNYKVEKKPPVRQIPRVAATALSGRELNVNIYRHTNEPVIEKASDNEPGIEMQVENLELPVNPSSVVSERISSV

SMILES	IC50 (5-HT2A receptors) [µM]	IC50 (5 HT2C receptor) [µM]
CN1CCN(Cc2cnn(-c3ccc(-c4ccc(Oc5ccccc5)cc4)cc3)c2-c2ccccc2F)CC1 [Example 634, 1-[5-(2-Fluorophenyl)-1-(4′-phenoxybiphenyl-4-yl)-1H-pyrazol-4-ylmethyl]-4-methylpiperazine]	0.041	0.97
CN1CCN(Cc2cnn(-c3ccc(-c4ccc5c(c4)OCO5)cc3)c2-c2ccco2)CC1 [Example 550, 1-[1-(4-Benzo-1,3-dioxol-5-ylphenyl)-5-furan-2-yl-1H-pyrazol-4-ylmethyl]-4-methylpiperazine]	0.0058	0.17
c1coc(-c2c(CN3CCNCC3)cnn2-c2ccc(-c3ccc4c(c3)OCO4)cc2)c1 [Example 534, 1-[1-(4-Benzo-1,3-dioxol-5-ylphenyl)-5-furan-2-yl-1H-pyrazol-4-ylmethyl]piperazine]	0.002	0.11
Fc1ccc(-c2ccc(-n3ncc(CN4CCC(COc5ccccn5)CC4)c3-c3ccco3)cc2)cc1 [Example 561, 2-{1-[1-(4′-Fluorobiphenyl-4-yl)-5-furan-2-yl-1H-pyrazol-4-ylmethyl]piperidin-4-ylmethoxy}pyridine]	0.009	1
CN1CCN(Cc2cnn(-c3ccc(-c4cc(F)ccc4F)cc3)c2-c2ccco2)CC1 [Example 624, 1-[1-(2′,5′-Difluorobiphenyl-4-yl)-5-furan-2-yl-1H-pyrazol-4-ylmethyl]-4-methylpiperazine]	0.036	0.28
COc1ccc(-c2ccc(-n3ncc(CCN4CCC(O)C4)c3-c3ccco3)cc2)cc1 (stereo not shown) [Example 571, 1-{2-[5-Furan-2-yl-1-(4′-methoxybiphenyl-4-yl)-1H-pyrazol-4-yl]ethyl}pyrrolidin-3-ol]	0.012	0.8
Cc1ccoc1-c1c(CN2CCC(O)C2)cnn1-c1ccc(-c2ccc(F)cc2)cc1 (stereo not shown) [Example 596, 1-[1-(4′-Fluorobiphenyl-4-yl)-5-(3-methyl-2-furanyl)-1H-pyrazol-4-ylmethyl]pyrrolidin-3-ol]	0.022	1
CN1CCN(Cc2cnn(-c3ccc(-c4ccc5c(c4)OCO5)cc3)c2-c2ccccc2F)CC1 [Example 563, 1-[1-(4-Benzo-1,3-dioxol-5-ylphenyl)-5-(2-fluorophenyl)-1H-pyrazol-4-ylmethyl]-4-methylpiperazine]	0.01	0.51
CN1CCN(Cc2cnn(-c3ccc(-c4cccn4C(=O)OC(C)(C)C)cc3)c2-c2ccccc2F)CC1 [Example 643, tert-Butyl 2-{4-[5-(2-fluorophenyl)-4-(4-methylpiperazin-1-ylmethyl)pyrazol-1-yl]phenyl}pyrrole-1-carboxylate]	0.048	0.93
COc1ccc(-c2ccc(-n3ncc(CN(C)C)c3-c3ccco3)cc2)cc1 [Example 542, [5-Furan-2-yl-1-(4′-methoxybiphenyl-4-yl)-1H-pyrazol-4-ylmethyl]dimethylamine]	0.0038	0.29
CC(C)N1CCN(Cc2cnn(-c3ccc(-c4ccc(F)cc4)cc3)c2-c2ccco2)CC1 [Example 558, 1-[1-(4′-Fluorobiphenyl-4-yl)-5-furan-2-yl-1H-pyrazol-4-ylmethyl]-4-isopropylpiperazine]	0.0082	0.37
COc1ccccc1-c1c(CN2CCN(C)CC2)cnn1-c1ccc(-c2cc(F)ccc2F)cc1 [Example 660, 1-[1-(2′,5′-Difluorobiphenyl-4-yl)-5-(2-methoxyphenyl)-1H-pyrazol-4-ylmethyl]-4-methylpiperazine]	0.077	0.63
CCN1CCN(Cc2cnn(-c3ccc(-c4ccc5c(c4)OCCO5)cc3)c2-n2cccc2)CC1 [Example 600, 1-{1-[4-(2,3-Dihydrobenzo-1,4-dioxin-6-yl)phenyl]-5-pyrrol-1-yl-1H-pyrazol-4-ylmethyl}-4-ethylpiperazine]	0.026	1
OC1CCN(Cc2cnn(-c3ccc(-c4cccc(F)c4)cc3)c2-c2ccco2)C1 (stereo not shown) [Example 562, 1-[1-(3′-Fluorobiphenyl-4-yl)-5-furan-2-yl-1H-pyrazol-4-ylmethyl]pyrrolidin-3-ol]	0.0091	0.53
OC1CCN(Cc2cnn(-c3ccc(-c4ccc5c(c4)OCCO5)cc3)c2-c2ccco2)C1 (stereo not shown) [Example 544, 1-{1-[4-(2,3-Dihydrobenzo-1,4-dioxin-6-yl)phenyl]-5-furan-2-yl-1H-pyrazol-4-ylmethyl}pyrrolidin-3-ol]	0.0043	0.47
Cc1ccoc1-c1c(CN2CCN(C)CC2)cnn1-c1ccc(-c2ccc(F)cc2)cc1 [Example 560, 1-[1-(4′-Fluorobiphenyl-4-yl)-5-(3-methyl-2-furanyl)-1H-pyrazol-4-ylmethyl]-4-methylpiperazine]	0.0089	0.78
CN(C)C1CCN(Cc2cnn(-c3ccc(-c4ccc(F)cc4)cc3)c2-c2ccco2)C1 (stereo not shown) [Example 537, {1-[1-(4′-Fluorobiphenyl-4-yl)-5-furan-2-yl-1H-pyrazol-4-ylmethyl]pyrrolidin-3-yl}dimethylamine]	0.0031	0.62
COc1ccc(-c2ccc(-n3ncc(CN4CCN(C5CCCC5)CC4)c3-c3ccco3)cc2)cc1 [Example 552, 1-Cyclopentyl-4-[5-furan-2-yl-1-(4′-methoxybiphenyl-4-yl)-1H-pyrazol-4-ylmethyl]piperazine]	0.0061	2.95
CCN1CCN(Cc2cnn(-c3ccc(-c4ccc(F)cc4)cc3)c2-c2ccco2)CC1 [Example 539, 1-Ethyl-4-[1-(4′-fluorobiphenyl-4-yl)-5-furan-2-yl-1H-pyrazol-4-ylmethyl]piperazine]	0.0036	0.31
CN1CCC(N(C)Cc2cnn(-c3ccc(-c4ccc(F)cc4)cc3)c2-c2ccco2)C1 (stereo not shown) [Example 543, [1-(4′-Fluorobiphenyl-4-yl)-5-furan-2-yl-1H-pyrazol-4-ylmethyl]methyl-(1-methyl-3-pyrrolidinyl)amine]	0.004	0.37
CCN(CC)Cc1cnn(-c2ccc(-c3cccc(F)c3)cc2)c1-c1ccco1 [Example 606, Diethyl-[1-(3′-fluorobiphenyl-4-yl)-5-furan-2-yl-1H-pyrazol-4-ylmethyl]amine]	0.027	1
CN1CCN(Cc2cnn(-c3ccc(-c4ccc(N(C)C)cc4)cc3)c2-c2ccccc2F)CC1 [Example 626, {4′-[5-(2-Fluorophenyl)-4-(4-methylpiperazin-1-ylmethyl)pyrazol-1-yl]biphenyl-4-yl}dimethylamine]	0.036	1
CCN1CCN(Cc2cnn(-c3ccc(-c4ccc(F)cc4)cc3)c2-n2cccc2)CC1 [Example 613, 1-Ethyl-4-[1-(4′-fluorobiphenyl-4-yl)-5-pyrrol-1-yl-1H-pyrazol-4-ylmethyl]piperazine]	0.032	1
Fc1ccc(-c2ccc(-n3ncc(CN4CCN(C5CCCC5)CC4)c3-c3ccco3)nc2)cc1 [Example 591, 1-Cyclopentyl-4-{1-[5-(4-fluorophenyl)pyridin-2-yl]-5-furan-2-yl-1H-pyrazol-4-ylmethyl}piperazine]	0.02	1
COCCCNCc1cnn(-c2ccc(-c3ccc(F)cc3)cc2)c1-c1ccco1 [Example 580, [1-(4′-Fluorobiphenyl-4-yl)-5-furan-2-yl-1H-pyrazol-4-ylmethyl]-(3-methoxypropyl)amine]	0.016	
